Results on two substances are retold here after patent US8242240B2, “Anti-inflammatory compounds and uses thereof” (Yale University, priority 2000, dated 2012).

One assay concerns NF-κB. In words: pBIIX-luciferase NF-κB reporter assay in HeLa cells. Type of assay: cell-based, human. Particulars: for basal NF-κB activity (luciferase reporter): no TNFα; for TNFα-induced NF-κB activation (luciferase reporter): peptide 100 and 200 μM 2 h, TNFα 10 ng/ml 4 h. As to the method:
(§1) (A) Sequences of wild-type (SEQ ID NO:18) and mutant (SEQ ID NO:19 forms of IKKβ NBD peptide. (B) GST-pull-down analysis was performed using either GST-NEMO-in vitro translated IKKβ (upper panel) or GST-IKKβ-(644-756)-in vitro translated NEMO (lower panel). The assay was performed in the absence (no peptide) or presence of increasing concentrations ([…], 500 or 1000 μM) of either mutant (MUT) (SEQ ID NO:19) or wild-type (WT) NBD (SEQ ID NO:18). (C) HeLa cells were incubated with either peptide (200 μM) for the times indicated. Following lysis, the IKK complex was immunoprecipitated using anti-NEMO and the resulting immunoblot probed with anti-IKKβ. (D) Gel image showing anti-NEMO immunoprecipitation. (E) Gel image showing anti-FLAG immunoblot. (F) HeLa cells were incubated for three hours with increasing concentrations: 50, 100 or 200 μM) of each peptide followed by treatment for fifteen minutes with TNFα (10 ng/ml) as indicated (+). Following lysis, nuclear extracts were made and 10 μg of protein from each sample was used for EMSA using a specific [^32P]-labeled κB-site probe. (G) Gel image showing anti-Phospho-C-Jun immunoblot and anti-β-Actin immunoblot. (H) HeLa cells were transfected for forty-eight hours with pBIIX-luciferase then incubated for two hours in the absence (control) or presence of mutant or wild-type NBD peptide (100 and 200 μM of each). Subsequently the cells were either treated with TNFα (10 ng/ml) as indicated (toe panel) or left untreated (bottom panel) for a further four hours after which NF-κB activation was measured by luciferase assay.
For transfection studies, HeLa and COS cells were seeded into either twenty-four well (1×10^5 cells/well) or six well (5×10^5 cells/well) plates and grown for twenty-four hours before transfection of DNA with FUGENE6(Roche) according to the manufacturer's protocol. Cells in twenty-four well and six well trays received a total of 1 μg or 2 μg of DNA respectively. After forty-eight hours cells were lysed with TNT (200 mM NaCl, 20 mM Tris-pH 8.0, 1% Triton-100) and the lysate were used for either immunoprecipitation or luciferase assay (Primage Luciferase Assay System).
The effects of the NBD peptides on signal-induced activation of NF-κB were investigated next. Analysis using electrophoretic mobility shift assay. […] Further, after transfecting HeLa cells with the pBIIX-luciferase reporter, cells were preincubated with wild-type or mutant peptides, treated with TNFα and NF-κB activation measured by the luciferase reporter assay. As shown in FIG. 5H (top panel), the wild-type NBD peptide inhibited TNFα-induced NF-κB activation whereas the mutant had no effect. […]

Another assay relates to E-selectin. Nature of the assay: E-selectin expression in primary HUVEC (FACS). Type of assay: cell-based, human. Conditions: for TNFα-induced expression of E-selectin: peptide 100 μM 2 h, TNFα 10 ng/ml 6 h. The method, then: (A) Primary HUVEC were pre-incubated for two hours with wild-typo (middle) or mutant (bottom) NBD peptides (100 μM) then stimulated with TNFα (10 ng/ml) for a further six hours. Control cells received no peptide. Cells were stained with either anti-E-selectin (H4/18) or a non-binding control antibody (K16/16) and expression was measured FACS (FACSort, Becton Dickinson). The profiles show E-selectin staining in the absence (shaded) and presence (solid line) of TNFα and control antibody staining under the sane conditions (dashed line, no TNFα; dotted line, TNFα). (B) % control release of NO2— in various samples. (C) PMA-induced ear edema in mice topically treated with either vehicle (VEH), dexamethasone (DEX) or NBD peptides was induced and measured as described in Example 8. Data are presented as mean differences in ear thickness ±SD (*=p<0.05 compared with both untreated control and vehicle). (D) The effects of the NBD peptide compared with the effect of dexamethasone (DEX) on Zymosan (ZYM)-induced peritonitis in mice were determined as described again in Example 8. Control mice were injected with phosphate-buffered saline (PBS).
Many proteins involved in the initiation and maintenance of inflammatory responses require NF-κB activation for induced expression of their genes (Ghosh et al., (1998) Annu. Rev. Immunol. 16, 225-260; May & Ghosh, (1998) Immunol. Today 19, 80-88). One such protein, E-selectin, is a leukocyte adhesion molecule expressed on the luminal surface of vascular endothelial cells after activation by pro-inflammatory stimuli such as IL-1 or TNFα (Pober et al., (1986) J. Immunol. […], 1680-1687; Bevilacqua et al., (1987) Proc. Natl. Acad. Sci. USA 84, 9238-9242; Collins et al., (1995) FASEB J. 9, 899-909). Expression of E-selectin and other NF-κB-dependent adhesion molecules is crucial for the arrest and recruitment of leukocytes into sites of acute and chronic inflammation. […]

The target in another assay is T1, IKKβ-NEMO interaction (Homo sapiens, UniProt Q9Y6K9).
T1 construct: bacterially expressed version of full length NEMO fused at its NH2-terminus to glutathione S-transferase; made in house; host or cells: bacteria (GST-NEMO); in vitro translation (IKKβ)
T1 sequence (Q9Y6K9 whole entry, the tested form may be a part): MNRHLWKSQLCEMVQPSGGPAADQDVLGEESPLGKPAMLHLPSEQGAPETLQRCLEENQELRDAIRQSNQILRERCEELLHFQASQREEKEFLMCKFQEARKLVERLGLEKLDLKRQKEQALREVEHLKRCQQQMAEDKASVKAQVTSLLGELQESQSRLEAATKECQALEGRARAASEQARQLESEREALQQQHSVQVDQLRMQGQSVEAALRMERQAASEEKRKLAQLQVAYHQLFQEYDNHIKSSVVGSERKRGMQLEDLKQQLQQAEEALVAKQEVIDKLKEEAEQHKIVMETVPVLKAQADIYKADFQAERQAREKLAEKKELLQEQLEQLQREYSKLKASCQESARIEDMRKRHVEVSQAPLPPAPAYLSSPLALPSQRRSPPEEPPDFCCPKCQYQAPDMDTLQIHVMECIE
Nature of the assay: In vitro GST pull-down of IKKβ/NEMO in the presence of NBD peptides. Type of assay: binding. Particulars: peptide 125, 500 or 1000 μM. As to the method:
as §1
The sequences of the two NBD peptides used in t its study were [[…]][…] (wild-type) (SEQ ID NO: 18) and [[…]][…] (mutant) (SEQ ID NO: 19; FIG. 5A). The antennapedia homeodomain sequence (Derossi et al., (1994) J. Biol. Chem. 269, 10444-10450; U.S. Pat. No. 5,888,762; U.S. Pat. No. 6,015,787; U.S. Pat. No. 6,080,724) is bracketed and the positions of the W to A mutations are underlined. Both peptides were dissolved in DMSO to a stock concentration of 20 mM. For all experiments DMSO alone controls were no different from no peptide controls.
The mutant was identical except that the tryptophan residues (W739 and W741) in the NBD were mutated to alanine. […] To test the ability of the NBD peptides to enter cells and inhibit the IKKβ-NEMO interaction, HeLa cells were incubated with the peptides for different time periods and immunoprecipitated the IKK complex using anti-NEMO. In agreement with the in vitro data (FIG. 5B), wild-type but not mutant disrupted the formation of the endogenous IKK complex (FIG. 5C).

“[DRQIKIWFQNRRMKWKK]TALDWSWLQTE (DRQIKIWFQNRRMKWKKTALDWSWLQTE; Description of Unknown: Unknown wildtype NBD peptide) [wild-type NBD peptide]”: the “basal NF-κB activity (luciferase reporter)” value in the assay on NF-κB (listed as cell-permeable NBD peptide) is “modest increase”. In addition, the “basal NF-κB activity (luciferase reporter)” value with NF-κB (listed as wild-type peptide) is given as “enhanced”. Also, the “TNFα-induced NF-κB activation (luciferase reporter)” value in the assay on NF-κB was “inhibited”. The “E-selectin expression in the absence of TNFα” value in the assay on E-selectin (peptide 100 μM) is listed as “induced low level expression”. Also, the “TNFα-induced expression of E-selectin” value in the assay with E-selectin is reported as “significantly reduced”. In the assay with IKKβ-NEMO interaction, the “inhibition of in vitro pull-down of [35S]-labeled IKKβ by GST-NEMO” value is “dose-dependently inhibited” and the “inhibition of in vitro pull-down of [35S]-labeled NEMO by GST-IKKβ-(644-756)” value was “dose-dependently inhibited”.

As to “[DRQIKIWFQNRRMKWKK]TALDASALQTE (DRQIKIWFQNRRMKWKKTALDASALQTE; Description of Artificial Sequence: Synthetic Mutant NBD peptide) [identical to wild-type NBD peptide except W739 and W741 mutated to alanine, reference compound]”, the “TNFα-induced NF-κB activation (luciferase reporter)” value in the assay with NF-κB is recorded as “no effect”. Besides, the “TNFα-induced expression of E-selectin” value in the assay on E-selectin is “not”. Also, in the assay with IKKβ-NEMO interaction, the “inhibition of in vitro pull-down of [35S]-labeled IKKβ by GST-NEMO” value is reported as “not” and the “inhibition of in vitro pull-down of [35S]-labeled NEMO by GST-IKKβ-(644-756)” value is reported as “not”.
